From ChEMBL document CHEMBL4118281, “Azoalkyl ether imidazo[2,1-b]benzothiazoles as potentially antimicrobial agents with novel structural skeleton” (2018)
≈ marks a conversion by molar mass, not a printed value.

Assays:
Shigella dysenteriae [1] = test: Potency index, ratio of norfloxacin MIC to compound MIC for Shigella dysenteriae; type: functional
Aspergillus flavus [2] = test: Antifungal activity against Aspergillus flavus after 24 hrs by two fold serial dilution based spectrophotometric analysis; type: functional
Staphylococcus aureus [3] = test: Antibacterial activity against Staphylococcus aureus ATCC 25923 after 24 hrs by micro broth dilution method; type: functional; conditions: ATCC 25923, 24 h
Shigella dysenteriae [4] = test: Antibacterial activity against Shigella dysenteriae after 24 hrs by micro broth dilution method; type: functional
Saccharomyces cerevisiae = test: Antifungal activity against Beer yeast after 24 hrs by two fold serial dilution based spectrophotometric analysis; type: functional
Escherichia coli [5] = test: Antibacterial activity against Escherichia coli JM109 after 24 hrs by micro broth dilution method; type: functional; conditions: JM109, 24 h
Salmonella typhi = test: Antibacterial activity against Bacillus typhi after 24 hrs by micro broth dilution method; type: functional, Salmonella enterica subsp. enterica serovar Typhi; conditions: Salmonella enterica
Micrococcus luteus = test: Antibacterial activity against Micrococcus luteus ATCC 4698 after 24 hrs by micro broth dilution method; type: functional; conditions: NCTC 2665, 24 h
Staphylococcus aureus [6] = test: Antibacterial activity against methicillin-resistant Staphylococcus aureus N315 after 24 hrs by micro broth dilution method; type: functional; conditions: N315, 24 h
Bacillus = test: Antibacterial activity against Bacillus proteus ATCC 13315 after 24 hrs by micro broth dilution method; type: functional; conditions: ATCC 13315, 24 h
Pichia norvegensis = test: Antifungal activity against Candida mycoderma after 24 hrs by two fold serial dilution based spectrophotometric analysis; type: functional
Aspergillus flavus [7] = test: Potency index, ratio of fluconazole MIC to compound MIC for Aspergillus flavus; type: functional
Cyberlindnera jadinii = test: Antifungal activity against Candida utilis after 24 hrs by two fold serial dilution based spectrophotometric analysis; type: functional; conditions: Williopsis jadinii
Bacillus subtilis = test: Antibacterial activity against Bacillus subtilis after 24 hrs by micro broth dilution method; type: functional
Shigella dysenteriae [8] = test: Potency index, ratio of chloromycin MIC to compound MIC for Shigella dysenteriae; type: functional
Escherichia coli [9] = test: Antibacterial activity against Escherichia coli DH52 after 24 hrs by micro broth dilution method; type: functional; conditions: DH52, 24 h
Candida albicans = test: Antifungal activity against Candida albicans after 24 hrs by two fold serial dilution based spectrophotometric analysis; type: functional
Pseudomonas aeruginosa = test: Antibacterial activity against Pseudomonas aeruginosa after 24 hrs by micro broth dilution method; type: functional

| SMILES | Ratio (Shigella dysenteriae [1]) | MIC (Aspergillus flavus [2]) | MIC (Staphylococcus aureus [3]) | MIC (Shigella dysenteriae [4]) | MIC (Saccharomyces cerevisiae) | MIC (Escherichia coli [5]) | MIC (Salmonella typhi) | MIC (Micrococcus luteus) | MIC (Staphylococcus aureus [6]) | MIC (Bacillus) | MIC (Pichia norvegensis) | Ratio (Aspergillus flavus [7]) | MIC (Cyberlindnera jadinii) | MIC (Bacillus subtilis) | Ratio (Shigella dysenteriae [8]) | MIC (Escherichia coli [9]) | MIC (Candida albicans) | MIC (Pseudomonas aeruginosa) |
| --- | --- | --- | --- | --- | --- | --- | --- | --- | --- | --- | --- | --- | --- | --- | --- | --- | --- | --- |
| BrCCCOCc1c(-c2ccccc2)nc2sc3ccccc3n12 | 4 | 4 µg/mL (≈ 9.97 µM) | 32 µg/mL (≈ 79.7 µM) | 4 µg/mL (≈ 9.97 µM) | 8 µg/mL (≈ 19.9 µM) | 32 µg/mL (≈ 79.7 µM) | 16 µg/mL (≈ 39.9 µM) | 32 µg/mL (≈ 79.7 µM) | 8 µg/mL (≈ 19.9 µM) | 16 µg/mL (≈ 39.9 µM) | 32 µg/mL (≈ 79.7 µM) | 64 | 64 µg/mL (≈ 159 µM) | 4 µg/mL (≈ 9.97 µM) | 4 | 16 µg/mL (≈ 39.9 µM) | 4 µg/mL (≈ 9.97 µM) | 8 µg/mL (≈ 19.9 µM) |
| BrCCCCCCCCCCOCc1c(-c2ccccc2)nc2sc3ccccc3n12 | – | 16 µg/mL (≈ 32 µM) | 32 µg/mL (≈ 64.1 µM) | 64 µg/mL (≈ 128 µM) | 64 µg/mL (≈ 128 µM) | 128 µg/mL (≈ 256 µM) | 128 µg/mL (≈ 256 µM) | 32 µg/mL (≈ 64.1 µM) | 64 µg/mL (≈ 128 µM) | 16 µg/mL (≈ 32 µM) | 64 µg/mL (≈ 128 µM) | – | 64 µg/mL (≈ 128 µM) | 8 µg/mL (≈ 16 µM) | – | 16 µg/mL (≈ 32 µM) | 4 µg/mL (≈ 8.01 µM) | 16 µg/mL (≈ 32 µM) |
| CCOc1ccc2c(c1)sc1nc(-c3ccccc3)c(COCCCCCCCCCCBr)n12 | – | 512 µg/mL (≈ 942 µM) | > 512 µg/mL | > 512 µg/mL | > 512 µg/mL | > 512 µg/mL | 256 µg/mL (≈ 471 µM) | > 512 µg/mL | > 512 µg/mL | > 512 µg/mL | > 512 µg/mL | – | > 512 µg/mL | > 512 µg/mL | – | > 512 µg/mL | > 512 µg/mL | 16 µg/mL (≈ 29.4 µM) |
| CCOc1ccc2c(c1)sc1nc(-c3ccccc3)c(COCCCBr)n12 | – | 512 µg/mL (≈ 1150 µM) | > 512 µg/mL | > 512 µg/mL | > 512 µg/mL | > 512 µg/mL | 8 µg/mL (≈ 18 µM) | > 512 µg/mL | > 512 µg/mL | > 512 µg/mL | > 512 µg/mL | – | > 512 µg/mL | > 512 µg/mL | – | > 512 µg/mL | > 512 µg/mL | 16 µg/mL (≈ 35.9 µM) |
| O=[N+]([O-])c1cn(CCCCCOCc2c(-c3ccccc3)nc3sc4ccccc4n23)cn1 | – | 64 µg/mL (≈ 139 µM) | 32 µg/mL (≈ 69.3 µM) | 128 µg/mL (≈ 277 µM) | 32 µg/mL (≈ 69.3 µM) | 128 µg/mL (≈ 277 µM) | 128 µg/mL (≈ 277 µM) | 256 µg/mL (≈ 555 µM) | 8 µg/mL (≈ 17.3 µM) | 64 µg/mL (≈ 139 µM) | 16 µg/mL (≈ 34.7 µM) | – | > 512 µg/mL | 128 µg/mL (≈ 277 µM) | – | 128 µg/mL (≈ 277 µM) | 16 µg/mL (≈ 34.7 µM) | 512 µg/mL (≈ 1110 µM) |
| Cc1ncc([N+](=O)[O-])n1CCCCCOCc1c(-c2ccccc2)nc2sc3ccccc3n12 | – | 16 µg/mL (≈ 33.6 µM) | 4 µg/mL (≈ 8.41 µM) | 16 µg/mL (≈ 33.6 µM) | > 512 µg/mL | 2 µg/mL (≈ 4.21 µM) | 32 µg/mL (≈ 67.3 µM) | 64 µg/mL (≈ 135 µM) | 8 µg/mL (≈ 16.8 µM) | 16 µg/mL (≈ 33.6 µM) | 64 µg/mL (≈ 135 µM) | – | 128 µg/mL (≈ 269 µM) | 16 µg/mL (≈ 33.6 µM) | – | 8 µg/mL (≈ 16.8 µM) | 8 µg/mL (≈ 16.8 µM) | 8 µg/mL (≈ 16.8 µM) |
| CCOc1ccc2c(c1)sc1nc(-c3ccccc3)c(COCCCCCCCCCCn3cnc([N+](=O)[O-])c3)n12 | – | 64 µg/mL (≈ 111 µM) | 128 µg/mL (≈ 222 µM) | 8 µg/mL (≈ 13.9 µM) | 256 µg/mL (≈ 445 µM) | 512 µg/mL (≈ 889 µM) | 32 µg/mL (≈ 55.6 µM) | 512 µg/mL (≈ 889 µM) | 32 µg/mL (≈ 55.6 µM) | 256 µg/mL (≈ 445 µM) | 128 µg/mL (≈ 222 µM) | – | 512 µg/mL (≈ 889 µM) | 32 µg/mL (≈ 55.6 µM) | – | 64 µg/mL (≈ 111 µM) | 256 µg/mL (≈ 445 µM) | 32 µg/mL (≈ 55.6 µM) |
| BrCCCCCOCc1c(-c2ccccc2)nc2sc3ccccc3n12 | – | 16 µg/mL (≈ 37.3 µM) | 32 µg/mL (≈ 74.5 µM) | 16 µg/mL (≈ 37.3 µM) | 16 µg/mL (≈ 37.3 µM) | 16 µg/mL (≈ 37.3 µM) | 128 µg/mL (≈ 298 µM) | 256 µg/mL (≈ 596 µM) | 16 µg/mL (≈ 37.3 µM) | 16 µg/mL (≈ 37.3 µM) | 64 µg/mL (≈ 149 µM) | – | 64 µg/mL (≈ 149 µM) | 4 µg/mL (≈ 9.32 µM) | – | 16 µg/mL (≈ 37.3 µM) | 4 µg/mL (≈ 9.32 µM) | 16 µg/mL (≈ 37.3 µM) |
